Laboratory results from patent US11337976B2 (Plexxikon Inc., priority 2011, dated 2022).

Tested on: A375 melanoma cells (B-Raf V600E mutation)
Experiment: A375 (A375_P-ERK) cell activity / cell growth inhibition assay
Format: cell-based, human
Details: Homo sapiens, A-375; A375 cells (text: A375_P-ERK)
Description: Compounds are assessed in a variety of cell based assays. For example human cell lines with B-RafV600E mutation (A375 melanoma, SKMEL3 melanoma, and COLO205 colon adenocarcinoma), as well as tumorigenic cell lines with wild-type B-RAF (SW620 colon adenocarcinoma) or with Ras mutations (SKMEL2 melanoma and IPC298 melanoma).
On day 1, cells are counted, then centrifuged in a conical tube for 5 minutes at 1000 rpm.
On day 2, compound at a maximum concentration of 5 mM is serially diluted 1:3 (e.g. 10 μL with 30 μL dimethyl sulfoxide) for a total of 8 point titration with DMSO as a control. A 1 μL aliquot of each dilution point and control is added to 249 μL growth media and 50 μL is added to a well containing cells, providing 10 μM compound at the maximum concentration point. The cells are incubated for 3 days at 37° C. in 5% CO2.
ATPlite is added 25 μL to each well, shake for 2 minutes, and the cells are incubated at room temperature for 10 minutes, then luminescence is read on Safire reader. The measured luminescence correlates directly with cell number, such that the reading as a function of compound concentration is used to determine the IC50 value.

| IC50 [µM] | SMILES |
| --- | --- |
| < 1 | CCN(C)S(=O)(=O)Nc1cccc(C(=O)c2c[nH]c3ncc(-c4ccc(C#N)c(OC)c4)cc23)c1F [P-0060, 5-(4-cyano-3-methoxy-phenyl)-3-[3-[[ethyl(methyl)sulfamoyl]amino]-2-fluoro-benzoyl]-1H-pyrrolo[2,3-b]pyridine] |
| < 1 | O=C(c1cccc(NS(=O)(=O)N2CCCC2)c1F)c1c[nH]c2ncc(-c3ccc(F)cc3)cc12 [P-0062, N-[2-fluoro-3-[5-(4-fluorophenyl)-1H-pyrrolo[2,3-b]pyridine-3-carbonyl]phenyl]pyrrolidine-1-sulfonamide] |
| < 1 | O=C(c1cccc(NS(=O)(=O)N2CCCC2)c1F)c1c[nH]c2ncc(-c3ccccc3)cc12 [P-0063, N-[2-fluoro-3-(5-phenyl-1H-pyrrolo[2,3-b]pyridine-3-carbonyl)phenyl]pyrrolidine-1-sulfonamide] |
| < 1 | CN(C)S(=O)(=O)Nc1cccc(C(=O)c2c[nH]c3ncc(-c4cnc(NC5CC5)nc4)cc23)c1F [P-0064, 5-[2-(cyclopropylamino)pyrimidin-5-yl]-3-[3-(dimethylsulfamoylamino)-2-fluoro-benzoyl]-1H-pyrrolo[2,3-b]pyridine] |
| < 1 | COCCS(=O)(=O)Nc1cccc(C(=O)c2c[nH]c3ncc(-c4cnc(OC)nc4)cc23)c1F [P-0065, N-[2-fluoro-3-[5-(2-methoxypyrimidin-5-yl)-1H-pyrrolo[2,3-b]pyridine-3-carbonyl]phenyl]-2-methoxy-ethane sulfonamide] |
| < 1 | CC(C)CN(C)S(=O)(=O)Nc1cccc(C(=O)c2c[nH]c3ncc(I)cc23)c1F [P-0070, 3-[2-fluoro-3-[[isobutyl(methyl)sulfamoyl]amino]benzoyl]-5-iodo-1H-pyrrolo[2,3-b]pyridine] |
| < 1 | CC(C)NS(=O)(=O)Nc1cccc(C(=O)c2c[nH]c3ncc(I)cc23)c1F [P-0071, [2-fluoro-3-(isopropylsulfamoylamino)phenyl]-(5-iodo-1H-pyrrolo[2,3-b]pyridin-3-yl)methanone] |
| < 1 | COc1ncc(-c2cnc3[nH]cc(C(=O)c4cccc(NS(=O)(=O)N(C)CC(C)C)c4F)c3c2)cn1 [P-0072, 3-[2-fluoro-3-[[isobutyl(methyl)sulfamoyl]amino]benzoyl]-5-(2-methoxypyrimidin-5-yl)-1H-pyrrolo[2,3-b]pyridine] |
| < 1 | COCCN(C)S(=O)(=O)Nc1cccc(C(=O)c2c[nH]c3ncc(-c4cnc(OC)nc4)cc23)c1F [P-0073, 3-[2-fluoro-3-[[2-methoxyethyl(methyl)sulfamoyl]amino]benzoyl]-5-(2-methoxypyrimidin-5-yl)-1H-pyrrolo[2,3-b]pyridine] |
| < 1 | COc1ncc(-c2cnc3[nH]cc(C(=O)c4cccc(NS(=O)(=O)N5CCCC5C)c4F)c3c2)cn1 (stereo not shown) [P-0074, N-[2-fluoro-3-[5-(2-methoxypyrimidin-5-yl)-1H-pyrrolo[2,3-b]pyridine-3-carbonyl]phenyl]-2-methyl-pyrrolidine-1-sulfonamide] |
| < 1 | CCN(C)S(=O)(=O)Nc1cccc(C(=O)c2c[nH]c3ncc(-c4ccc(N(C)C)nc4)cc23)c1F [P-0076, 5-[6-(dimethylamino)-3-pyridyl]-3-[3-[[ethyl(methyl)sulfamoyl]amino]-2-fluoro-benzoyl]-1H-pyrrolo[2,3-b]pyridine] |
| < 1 | CCN(C)S(=O)(=O)Nc1cccc(C(=O)c2c[nH]c3ncc(-c4cnc(NC5CC5)nc4)cc23)c1F [P-0077, 5-[2-(cyclopropylamino)pyrimidin-5-yl]-3-[3-[[ethyl(methyl)sulfamoyl]amino]-2-fluoro-benzoyl]-1H-pyrrolo[2,3-b]pyridine] |
| < 1 | CCCN(C)S(=O)(=O)Nc1ccc(F)c(C(=O)c2c[nH]c3ncc(-c4cnc(C5CC5)nc4)cc23)c1F [P-0078, 5-(2-cyclopropylpyrimidin-5-yl)-3-[2,6-difluoro-3-[[methyl(propyl)sulfamoyl]amino]benzoyl]-1H-pyrrolo[2,3-b]pyridine] |
| < 1 | COCCN(C)S(=O)(=O)Nc1cccc(C(=O)c2c[nH]c3ncc(-c4ccc(C5(C#N)CC5)cc4)cc23)c1F [P-0080, 5-[4-(1-cyanocyclopropyl)phenyl]-3-[2-fluoro-3-[[2-methoxyethyl(methyl)sulfamoyl]amino]benzoyl]-1H-pyrrolo[2,3-b]pyridine] |
| < 1 | COCCN(C)S(=O)(=O)Nc1cccc(C(=O)c2c[nH]c3ncc(-c4cnc(NC5CC5)nc4)cc23)c1F [P-0081, 5-[2-(cyclopropylamino)pyrimidin-5-yl]-3-[2-fluoro-3-[[2-methoxyethyl(methyl)sulfamoyl]amino]benzoyl]-1H-pyrrolo[2,3-b]pyridine] |
| < 1 | CN(CC1CC1)S(=O)(=O)Nc1cccc(C(=O)c2c[nH]c3ncc(-c4cnc(C5CC5)nc4)cc23)c1F [P-0084, 3-[3-[[cyclopropylmethyl(methyl)sulfamoyl]amino]-2-fluoro-benzoyl]-5-(2-cyclopropylpyrimidin-5-yl)-1H-pyrrolo[2,3-b]pyridine] |

| IC50 [µM] | SMILES |
| --- | --- |
| < 1 | COCCN(C)S(=O)(=O)Nc1cccc(C(=O)c2c[nH]c3ncc(-c4cnc(C5CC5)nc4)cc23)c1F [P-0085, 5-(2-cyclopropylpyrimidin-5-yl)-3-[2-fluoro-3-[[2-methoxyethyl(methyl)sulfamoyl]amino]benzoyl]-1H-pyrrolo[2,3-b]pyridine] |
| < 1 | COc1ncc(-c2cnc3[nH]cc(C(=O)c4cccc(NS(=O)(=O)N5CC(F)(F)C5)c4F)c3c2)cn1 [P-0088, 3,3-difluoro-N-[2-fluoro-3-[5-(2-methoxypyrimidin-5-yl)-1H-pyrrolo[2,3-b]pyridine-3-carbonyl]phenyl]azetidine-1-sulfonamide] |
| < 1 | CCN(C)S(=O)(=O)Nc1cccc(C(=O)c2c[nH]c3ncnc(N[C@@H](C)C4CC4)c23)c1F [P-0089, 4-[[(1 S)-1-cyclopropylethyl]amino]-5-[3-[[ethyl(methyl)sulfamoyl]amino]-2-fluoro-benzoyl]-7H-pyrrolo[2,3-d]pyrimidine] |
| < 1 | N#Cc1ccc(-c2cnc3[nH]cc(C(=O)c4cccc(NS(=O)(=O)N5CCCC5)c4F)c3c2)cc1 [P-0090, N-[3-[5-(4-cyanophenyl)-1H-pyrrolo[2,3-b]pyridine-3-carbonyl]-2-fluoro-phenyl]pyrrolidine-1-sulfonamide] |
| < 1 | Cc1ncc(-c2cnc3[nH]cc(C(=O)c4cccc(NS(=O)(=O)N5CCCC5)c4F)c3c2)cn1 [P-0092, N-[2-fluoro-3-[5-(2-methylpyrimidin-5-yl)-1H-pyrrolo[2,3-b]pyridine-3-carbonyl]phenyl]pyrrolidine-1-sulfonamide] |
| < 1 | N#Cc1cncc(-c2cnc3[nH]cc(C(=O)c4cccc(NS(=O)(=O)N5CCCC5)c4F)c3c2)c1 [P-0093, N-[3-[5-(5-cyano-3-pyridyl)-1H-pyrrolo[2,3-b]pyridine-3-carbonyl]-2-fluoro-phenyl]pyrrolidine-1-sulfonamide] |
| < 1 | N#Cc1ccc(-c2cnc3[nH]cc(C(=O)c4cccc(NS(=O)(=O)N5CCCC5)c4F)c3c2)cn1 [P-0094, N-[3-[5-(6-cyano-3-pyridyl)-1H-pyrrolo[2,3-b]pyridine-3-carbonyl]-2-fluoro-phenyl]pyrrolidine-1-sulfonamide] |
| < 1 | O=C(c1cccc(NS(=O)(=O)N2CCCC2)c1F)c1c[nH]c2ncc(-c3ccc(C(F)(F)F)nc3)cc12 [P-0095, N-[2-fluoro-3-[5-[6-(trifluoromethyl)-3-pyridyl]-1H-pyrrolo[2,3-b]pyridine-3-carbonyl]phenyl]pyrrolidine-1-sulfonamide] |
| < 1 | Cc1ncc(-c2cnc3[nH]cc(C(=O)c4cccc(NS(=O)(=O)N(C)C)c4F)c3c2)cn1 [P-0097, 3-[3-(dimethylsulfamoylamino)-2-fluoro-benzoyl]-5-(2-methylpyrimidin-5-yl)-1H-pyrrolo[2,3-b]pyridine] |
| < 1 | CN(C)S(=O)(=O)Nc1cccc(C(=O)c2c[nH]c3ncc(-c4cncc(C#N)c4)cc23)c1F [P-0098, 5-(5-cyano-3-pyridyl)-3-[3-(dimethylsulfamoylamino)-2-fluoro-benzoyl]-1H-pyrrolo[2,3-b]pyridine] |
| < 1 | CN(C)S(=O)(=O)Nc1cccc(C(=O)c2c[nH]c3ncc(-c4ccc(C#N)nc4)cc23)c1F [P-0099, 5-(6-cyano-3-pyridyl)-3-[3-(dimethylsulfamoylamino)-2-fluoro-benzoyl]-1H-pyrrolo[2,3-b]pyridine] |
| < 1 | CCN(C)S(=O)(=O)Nc1cccc(C(=O)c2c[nH]c3ncc(-c4cnc(C#N)nc4)cc23)c1F [P-0100, 5-(2-cyanopyrimidin-5-yl)-3-[3-[[ethyl(methyl)sulfamoyl]amino]-2-fluoro-benzoyl]-1H-pyrrolo[2,3-b]pyridine] |
| < 1 | CCN(C)S(=O)(=O)Nc1cccc(C(=O)c2c[nH]c3ncc(-c4ccc(C#N)nc4)cc23)c1F [P-0102, 5-(6-cyano-3-pyridyl)-3-[3-[[ethyl(methyl)sulfamoyl]amino]-2-fluoro-benzoyl]-1H-pyrrolo[2,3-b]pyridine] |
| < 1 | CCN(C)S(=O)(=O)Nc1cccc(C(=O)c2c[nH]c3ncc(-c4ccc(C(C)(C)O)cc4)cc23)c1F [P-0104, 3-[3-[[ethyl(methyl)sulfamoyl]amino]-2-fluoro-benzoyl]-5-[4-(1-hydroxy-1-methyl-ethyl)phenyl]-1H-pyrrolo[2,3-b]pyridine] |
| < 1 | CN(C)c1ncc(-c2cnc3[nH]cc(C(=O)c4cccc(NS(=O)(=O)N(C)C)c4F)c3c2)cn1 [P-0106, 5-[2-(dimethylamino)pyrimidin-5-yl]-3-[3-(dimethylsulfamoylamino)-2-fluoro-benzoyl]-1H-pyrrolo[2,3-b]pyridine] |
